Experimental data taken from paper PMC11240139, “Exploring the antitumor potential of novel quinoline derivatives via tubulin polymerization inhibition in breast cancer; design, synthesis and molecular docking” (RSC Advances, 2024).

How the values were obtained:
[1] = target: T1, tubulin (Sus scrofa, UniProt P02550+P02554); set-up: method as in PMID 33203182, PMID 36893547, PMID 33730937, PMID 30525584, PMID 30530194; details: Fig. 4; read-out: tubulin inhibition IC50; cited from earlier work
T1 construct: purchased Cytoskeleton, USA

[2] = test system: MDA-MB-231 cells; assay: Cell apoptosis analysis (annexin V-FITC/PI); format: cell-based; details: MDA-MB-231, IC50 dose, 24 h
Description: Annexin-V-FITC Apoptosis Detection Kit (Biovision, USA) was used to determine apoptotic cells according to manufacturer's instructions. Briefly, MDA-MB 231 cells (2 × 10^5 cells) were seeded in 6-well plates and cultured for 24 h. […] Cells were collected, washed with PBS and centrifuged. The cells were re-suspended in 500 μL of 1× binding buffer. 5 μL of annexin V-FITC and 5 μL of propidium iodide (PI […]) were added and the cells were incubated in the dark at room temperature for 5 min. The fluorescence of the stained cells was analyzed by flow cytometry using FACSCalibur (BD Biosciences, Mountain View, CA). The data were analyzed using the CellQuest software (BD Biosciences).[53,54]

[3] = test system: MDA-MB-231 cells; assay: Cell cycle analysis by flow cytometry (PI); format: cell-based; details: MDA-MB-231, IC50 dose, 24 h; control 10.42%
Description: Propidium Iodide Flow Cytometry Kit for Cell Cycle Analysis (Abcam) was used according to manufacturer's instructions. Briefly, MDA-MB 231 cells (2 × 10^5 cells) were seeded in 6-well plates and cultured for 24 h. […] Cells were collected, washed with PBS and centrifuged. Subsequently, the cells were re-suspended and fixed in 66% ethanol on ice for at least 2 h. The cells were stained with a working solution containing propidium iodide (PI) in the dark at 37 °C for 30 min. DNA content of the cells were measured by flow cytometry using FACSCalibur (BD Biosciences, Mountain View, CA). The data were analyzed using the CellQuest software (BD Biosciences).[21]

T1 sequence (P02554 whole entry): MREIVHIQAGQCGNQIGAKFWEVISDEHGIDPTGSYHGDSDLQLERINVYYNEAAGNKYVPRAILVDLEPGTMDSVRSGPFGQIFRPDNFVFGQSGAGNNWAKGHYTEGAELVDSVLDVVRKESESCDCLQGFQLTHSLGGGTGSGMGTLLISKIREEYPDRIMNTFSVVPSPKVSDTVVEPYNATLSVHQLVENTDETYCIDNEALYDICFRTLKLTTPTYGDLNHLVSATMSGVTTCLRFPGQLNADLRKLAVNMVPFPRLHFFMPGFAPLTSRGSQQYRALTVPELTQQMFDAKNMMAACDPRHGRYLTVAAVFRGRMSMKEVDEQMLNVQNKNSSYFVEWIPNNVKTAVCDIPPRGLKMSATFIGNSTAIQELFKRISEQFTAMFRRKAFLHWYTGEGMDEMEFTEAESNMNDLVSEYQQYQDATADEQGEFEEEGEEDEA
T1 sequence (P02550 whole entry): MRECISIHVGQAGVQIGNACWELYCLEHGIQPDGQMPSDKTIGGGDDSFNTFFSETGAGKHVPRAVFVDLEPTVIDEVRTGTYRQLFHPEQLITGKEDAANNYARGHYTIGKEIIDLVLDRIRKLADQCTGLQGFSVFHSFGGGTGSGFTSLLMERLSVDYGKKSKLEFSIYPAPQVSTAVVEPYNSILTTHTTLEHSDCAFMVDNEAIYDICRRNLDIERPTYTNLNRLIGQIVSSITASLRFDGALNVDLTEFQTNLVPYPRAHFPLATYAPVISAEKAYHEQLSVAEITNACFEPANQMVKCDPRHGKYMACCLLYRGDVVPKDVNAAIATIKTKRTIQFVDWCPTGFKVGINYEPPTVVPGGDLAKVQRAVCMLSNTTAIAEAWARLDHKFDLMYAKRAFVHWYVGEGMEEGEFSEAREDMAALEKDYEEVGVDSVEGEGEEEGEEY

COc1ccc(OC)c(/C=C/C(=O)c2ccc(NC(=O)COc3cccc4cccnc34)cc2)c1 [X]
IC50 [1]: 5320 nM

COc1cc(C(=O)N/N=C/c2cc3ccc(OC(C)C)cc3nc2OC)cc(OC)c1OC [IX]
IC50 [1]: 1320 nM

COc1ccc2nc(Cl)c(C3CC(c4ccc(N)cc4)=NN3c3ccccc3)cc2c1 (stereo not shown) [XIV]
IC50 [1]: 9.11 nM

COc1cc2c(c(OC)c1OC)-c1ccc(OC)c(=O)cc1[C@@H](NC(C)=O)CC2 [Colchicine, colchicine]
Early Apoptosis (%) [2]: 19.19 ± 0.87% | Late Apoptosis (%) [2]: 6.62 ± 0.75% | Necrosis (%) [2]: 11.41 ± 2.8% | Total Cell Death (%) [2]: 37.22 ± 2.8% | Necrosis (%) ([2]; listed as colchicine): 11.41% | cells population at G2 and M phases [3]: 26.51%

C=C(c1ccc2c(ccn2C)c1)c1cc(C)nc2ccccc12 [XIII]
IC50 [1]: 2090 nM
